The values that follow come from patent US20250353891A1 (MEDIMMUNE LIMITED, priority 2022, published 2025).

Where two headings read alike, the source gives them in different places. Starred links: 1 amine or outer side, 2 acyl side, 3 side chain; linkers in the order of their positions; H or OH if unused. Non-standard residues stand in square brackets, D forms with d. Residues, ends and D or L forms follow the SMILES beside them. Groups on a side chain read outwards from the residue. *: point of attachment. C20 diacid = O=C(O)CCCCCCCCCCCCCCCCCCC(=O)*; C18 diacid = O=C(O)CCCCCCCCCCCCCCCCC(=O)*; γGlu = O=C(O)[C@H](CCC(=O)[*:2])N[*:1]; αMeF = C[C@](N)(Cc1ccccc1)C(=O)O; AEEA = NCCOCCOCC(=O)O; Aib = CC(C)(N)C(=O)O Some results are limits rather than exact numbers.

The target in assay [1] is human GLP-1 receptor (hGLP-1R) (Homo sapiens, UniProt P43220). In words: cAMP production (HTRF) in CHO cells expressing hGLP-1R. In kind it is cell-based. On the set-up: expressed in transfected cells. The conditions noted are these: for EC50: cAMP in CHO hGLP-1R cells, geometric mean, read-out: hGLP-1R EC50; for % Relative Potency Ratio: Table 6, % GLP-1R activity relative to GLP-1 / % GlucR activity relative to glucagon. In outline: (§1)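 Cells were resuspended in assay buffer at batch-optimized density, typically 1×10^5 cells/mL for hGLP-1R and 2×10^5 cells/mL for hGCGR. After 30 min incubation at room temperature with compound, cAMP was measured by two-step HTRF. EC50 values came from 4-parameter logistic fits of % Delta F.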
Background: Changes in cAMP serve as a functional read-out for many G protein-coupled receptors.

The target of assay [2] is human glucagon receptor (hGCGR) (Homo sapiens, UniProt P47871). In words: cAMP production (HTRF) in CHO cells expressing hGCGR. In kind it is cell-based. Details: expressed in transfected cells. Particulars: cAMP in CHO hGCGR cells, geometric mean, read-out: hGluc-R EC50. The procedure, abridged: as §1
[3] abbreviates: Table 6, peptides modified at position 17.
Where [4] appears, read: Table 7, peptides modified at position 20.

human GLP-1 receptor (hGLP-1R), sequence (P43220 24-463): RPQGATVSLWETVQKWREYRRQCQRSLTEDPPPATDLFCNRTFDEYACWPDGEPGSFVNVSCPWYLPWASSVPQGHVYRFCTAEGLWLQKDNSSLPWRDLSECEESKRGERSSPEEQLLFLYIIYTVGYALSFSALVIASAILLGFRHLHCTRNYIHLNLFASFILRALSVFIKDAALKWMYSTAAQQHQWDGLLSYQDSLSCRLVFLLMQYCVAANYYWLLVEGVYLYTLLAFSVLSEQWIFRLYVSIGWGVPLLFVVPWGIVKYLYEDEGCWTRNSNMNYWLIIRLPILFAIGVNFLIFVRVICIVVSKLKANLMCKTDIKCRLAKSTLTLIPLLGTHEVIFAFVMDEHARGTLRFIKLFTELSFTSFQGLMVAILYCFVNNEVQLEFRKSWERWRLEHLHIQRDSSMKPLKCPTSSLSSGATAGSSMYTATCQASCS
human glucagon receptor (hGCGR), sequence (P47871 26-477): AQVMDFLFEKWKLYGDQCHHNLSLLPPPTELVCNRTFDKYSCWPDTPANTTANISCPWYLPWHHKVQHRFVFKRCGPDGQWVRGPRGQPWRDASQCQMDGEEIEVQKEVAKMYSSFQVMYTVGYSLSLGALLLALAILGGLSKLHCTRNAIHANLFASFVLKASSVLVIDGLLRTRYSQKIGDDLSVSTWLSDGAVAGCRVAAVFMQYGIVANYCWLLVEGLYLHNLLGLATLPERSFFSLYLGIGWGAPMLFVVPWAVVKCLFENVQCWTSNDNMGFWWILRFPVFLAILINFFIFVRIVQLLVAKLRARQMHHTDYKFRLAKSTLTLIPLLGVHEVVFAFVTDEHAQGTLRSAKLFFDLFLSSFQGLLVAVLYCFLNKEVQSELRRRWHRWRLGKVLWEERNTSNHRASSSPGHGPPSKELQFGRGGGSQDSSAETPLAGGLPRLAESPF

For `CC(C)C[C@H](NC(=O)[C@H](Cc1c[nH]c2ccccc12)NC(=O)[C@H](CCCNC(=N)N)NC(=O)[C@@H](NC(=O)[C@H](Cc1ccccc1)NC(=O)[C@H](CC(=O)O)NC(=O)[C@H](CCC(N)=O)NC(=O)[C@H](C)NC(=O)[C@H](CCCNC(=N)N)NC(=O)[C@H](CCCCNC(=O)COCCOCCNC(=O)COCCOCCNC(=O)CC[C@H](NC(=O)CCCCCCCCCCCCCCCCC(=O)O)C(=O)O)NC(=O)[C@@H](NC(=O)[C@H](CC(=O)O)NC(=O)[C@H](CC(C)C)NC(=O)[C@](C)(Cc1ccccc1)NC(=O)[C@H](CCCCN)NC(=O)[C@H](CO)NC(=O)[C@@H](NC(=O)[C@H](CC(=O)O)NC(=O)[C@H](CO)NC(=O)[C@@H](NC(=O)[C@H](Cc1ccccc1)NC(=O)[C@@H](NC(=O)CNC(=O)[C@H](CCC(N)=O)NC(=O)C(C)(C)NC(=O)[C@@H](N)Cc1c[nH]cn1)[C@@H](C)O)[C@@H](C)O)C(C)C)[C@@H](C)O)C(C)C)C(=O)N[C@@H](CCC(=O)O)C(=O)NC(C)(C)C(=O)N[C@@H](CCC(=O)O)C(=O)O` [Peptide 419] (H-H[Aib]QGTFTSDVSK[αMeF]LDTK([AEEA-AEEA-γGlu-C18 diacid])RAQDFVRWLE[Aib]E-OH; N-terminus assumed), the EC50 stood at 96.9 pM in assay [1] (setting [3]) and 264 pM in assay [2] (setting [3]). Also, the “% Relative Potency Ratio” value in assay [1] amounted to 5.4.
On to `CC(C)C[C@H](NC(=O)[C@H](Cc1c[nH]c2ccccc12)NC(=O)[C@H](CCC(N)=O)NC(=O)[C@@H](NC(=O)[C@H](Cc1ccccc1)NC(=O)[C@H](CC(=O)O)NC(=O)[C@H](CCCNC(=N)N)NC(=O)[C@H](C)NC(=O)[C@H](CCCNC(=N)N)NC(=O)[C@H](CCCCNC(=O)COCCOCCNC(=O)COCCOCCNC(=O)CC[C@H](NC(=O)CCCCCCCCCCCCCCCCCCC(=O)O)C(=O)O)NC(=O)[C@H](CCCNC(=N)N)NC(=O)[C@H](CC(=O)O)NC(=O)[C@H](CC(C)C)NC(=O)[C@](C)(Cc1ccccc1)NC(=O)[C@H](CCCCN)NC(=O)[C@H](CO)NC(=O)[C@@H](NC(=O)[C@H](CC(=O)O)NC(=O)[C@H](CO)NC(=O)[C@@H](NC(=O)[C@H](Cc1ccccc1)NC(=O)[C@@H](NC(=O)CNC(=O)[C@H](CCC(N)=O)NC(=O)C(C)(C)NC(=O)[C@@H](N)Cc1c[nH]cn1)[C@@H](C)O)[C@@H](C)O)C(C)C)C(C)C)C(=O)N[C@@H](CC(C)C)C(=O)NC(C)(C)C(=O)N[C@@H](CCC(=O)O)C(N)=O` [Peptide 471], for which the figures for the concentration for a half-maximal effect (EC50) in assay [1] (setting [3]) and in assay [2] (setting [3]) were 102 pM and 63.6 pM, respectively. Further, the “% Relative Potency Ratio” value in assay [1] is 1.2.
For `CC(C)C[C@H](NC(=O)[C@H](Cc1c[nH]c2ccccc12)NC(=O)[C@H](CCCNC(=N)N)NC(=O)[C@@H](NC(=O)[C@H](Cc1ccccc1)NC(=O)[C@H](CC(=O)O)NC(=O)[C@H](CCC(N)=O)NC(=O)[C@H](C)NC(=O)[C@H](CCCNC(=N)N)NC(=O)[C@H](CCCCNC(=O)COCCOCCNC(=O)COCCOCCNC(=O)CC[C@H](NC(=O)CCCCCCCCCCCCCCCCCCC(=O)O)C(=O)O)NC(=O)[C@H](CO)NC(=O)[C@H](CC(=O)O)NC(=O)[C@H](CC(C)C)NC(=O)[C@](C)(Cc1ccccc1)NC(=O)[C@H](CCCCN)NC(=O)[C@H](CO)NC(=O)[C@@H](NC(=O)[C@H](CC(=O)O)NC(=O)[C@H](CO)NC(=O)[C@@H](NC(=O)[C@H](Cc1ccccc1)NC(=O)[C@@H](NC(=O)CNC(=O)[C@H](CCC(N)=O)NC(=O)C(C)(C)NC(=O)[C@@H](N)Cc1c[nH]cn1)[C@@H](C)O)[C@@H](C)O)C(C)C)C(C)C)C(=O)N[C@@H](CC(C)C)C(=O)NC(C)(C)C(=O)N[C@@H](CCC(=O)O)C(=O)O` [Peptide 153] (H-H[Aib]QGTFTSDVSK[αMeF]LDSK([AEEA-AEEA-γGlu-C20 diacid])RAQDFVRWLL[Aib]E-OH; N-terminus assumed), the EC50 in assay [1] (setting [3]) was found to be 41.2 pM; in assay [2] (setting [3]) it was 99 pM. The “% Relative Potency Ratio” value in assay [1] was found to be 4.8.
As for `CC(C)C[C@H](NC(=O)[C@H](Cc1c[nH]c2ccccc12)NC(=O)[C@H](CCCNC(=N)N)NC(=O)[C@@H](NC(=O)[C@H](Cc1ccccc1)NC(=O)[C@H](CC(=O)O)NC(=O)[C@H](CCCCNC(=O)COCCOCCNC(=O)COCCOCCNC(=O)CC[C@H](NC(=O)CCCCCCCCCCCCCCCCC(=O)O)C(=O)O)NC(=O)[C@H](C)NC(=O)[C@H](CCCNC(=N)N)NC(=O)[C@H](CCC(=O)O)NC(=O)[C@H](CO)NC(=O)[C@H](CC(=O)O)NC(=O)[C@H](CC(C)C)NC(=O)[C@](C)(Cc1ccccc1)NC(=O)[C@H](CCC(=O)O)NC(=O)[C@H](CO)NC(=O)[C@@H](NC(=O)[C@H](CC(=O)O)NC(=O)[C@H](CO)NC(=O)[C@@H](NC(=O)[C@H](Cc1ccccc1)NC(=O)[C@@H](NC(=O)CNC(=O)[C@H](CCC(N)=O)NC(=O)C(C)(C)NC(=O)[C@@H](N)Cc1c[nH]cn1)[C@@H](C)O)[C@@H](C)O)C(C)C)C(C)C)C(=O)N[C@@H](CCC(=O)O)C(=O)N[C@@H](C)C(=O)NCC(=O)NCC(=O)O` [Peptide 524] (H-H[Aib]QGTFTSDVSE[αMeF]LDSERAK([AEEA-AEEA-γGlu-C18 diacid])DFVRWLEAGG-OH), the figures for the EC50 in assay [1] (setting [4]) and in assay [2] (setting [4]) were 366 pM and above 24400 pM, respectively.
Take `CC(C)C[C@H](NC(=O)[C@H](Cc1c[nH]c2ccccc12)NC(=O)[C@H](CCCNC(=N)N)NC(=O)[C@@H](NC(=O)[C@H](Cc1ccccc1)NC(=O)[C@H](CC(=O)O)NC(=O)[C@H](CCC(N)=O)NC(=O)[C@H](C)NC(=O)[C@H](CCCNC(=N)N)NC(=O)[C@H](CCCCNC(=O)COCCOCCNC(=O)COCCOCCNC(=O)CC[C@H](NC(=O)CCCCCCCCCCCCCCCCCCC(=O)O)C(=O)O)NC(=O)[C@H](CO)NC(=O)[C@H](CCC(=O)O)NC(=O)[C@H](CC(C)C)NC(=O)[C@](C)(Cc1ccccc1)NC(=O)[C@H](CCCCN)NC(=O)[C@H](CO)NC(=O)[C@@H](NC(=O)[C@H](CC(=O)O)NC(=O)[C@H](CO)NC(=O)[C@@H](NC(=O)[C@H](Cc1ccccc1)NC(=O)[C@@H](NC(=O)CNC(=O)[C@H](CCC(N)=O)NC(=O)C(C)(C)NC(=O)[C@@H](N)Cc1c[nH]cn1)[C@@H](C)O)[C@@H](C)O)C(C)C)C(C)C)C(=O)N[C@@H](CC(C)C)C(=O)NC(C)(C)C(=O)N[C@H](C(=O)N[C@@H](CCC(=O)O)C(=O)O)[C@@H](C)O` [Peptide 509] (H-H[Aib]QGTFTSDVSK[αMeF]LESK([AEEA-AEEA-γGlu-C20 diacid])RAQDFVRWLL[Aib]TE-OH; N-terminus assumed): the EC50 in assay [1] (setting [3]) is 594 pM; in assay [2] (setting [3]), 3020 pM. Further, in assay [1], the “% Relative Potency Ratio” value is recorded as 10.1.
As to `CC(C)C[C@H](NC(=O)[C@H](Cc1c[nH]c2ccccc12)NC(=O)[C@H](C)NC(=O)[C@@H](NC(=O)[C@H](Cc1ccccc1)NC(=O)[C@H](CC(=O)O)NC(=O)[C@H](CCCNC(=N)N)NC(=O)[C@H](C)NC(=O)[C@H](CCCNC(=N)N)NC(=O)[C@H](CCCCNC(=O)COCCOCCNC(=O)COCCOCCNC(=O)CC[C@H](NC(=O)CCCCCCCCCCCCCCCCCCC(=O)O)C(=O)O)NC(=O)[C@@H](NC(=O)[C@H](CC(=O)O)NC(=O)[C@H](CC(C)C)NC(=O)[C@](C)(Cc1ccccc1)NC(=O)[C@H](CCCCN)NC(=O)[C@H](CO)NC(=O)[C@@H](NC(=O)[C@H](CC(=O)O)NC(=O)[C@H](CO)NC(=O)[C@@H](NC(=O)[C@H](Cc1ccccc1)NC(=O)[C@@H](NC(=O)CNC(=O)[C@H](CCC(N)=O)NC(=O)C(C)(C)NC(=O)[C@@H](N)Cc1c[nH]cn1)[C@@H](C)O)[C@@H](C)O)C(C)C)[C@@H](C)O)C(C)C)C(=O)N[C@@H](CC(C)C)C(=O)N[C@@H](CCC(=O)O)C(=O)NC(C)(C)C(=O)NCC(N)=O` [Peptide 507], the figures for the EC50 in assay [1] (setting [3]) and in assay [2] (setting [3]) were 52.9 pM and 86.6 pM, respectively. In addition, the “% Relative Potency Ratio” value in assay [1] is reported as 3.2.
Take `CC(C)C[C@H](NC(=O)[C@H](CC(C)C)NC(=O)[C@H](Cc1c[nH]c2ccccc12)NC(=O)[C@H](CCCNC(=N)N)NC(=O)[C@@H](NC(=O)[C@H](Cc1ccccc1)NC(=O)[C@H](CC(=O)O)NC(=O)[C@H](CCC(N)=O)NC(=O)[C@H](C)NC(=O)[C@H](CCCNC(=N)N)NC(=O)[C@H](CCCCNC(=O)COCCOCCNC(=O)COCCOCCNC(=O)CC[C@H](NC(=O)CCCCCCCCCCCCCCCCC(=O)O)C(=O)O)NC(=O)[C@H](CCCCN)NC(=O)[C@H](CC(=O)O)NC(=O)[C@H](CC(C)C)NC(=O)[C@](C)(Cc1ccccc1)NC(=O)[C@H](CCCCN)NC(=O)[C@H](CO)NC(=O)[C@@H](NC(=O)[C@H](CC(=O)O)NC(=O)[C@H](CO)NC(=O)[C@@H](NC(=O)[C@H](Cc1ccccc1)NC(=O)[C@@H](NC(=O)CNC(=O)[C@H](CCC(N)=O)NC(=O)C(C)(C)NC(=O)[C@@H](N)Cc1c[nH]cn1)[C@@H](C)O)[C@@H](C)O)C(C)C)C(C)C)C(=O)N[C@@H](C)C(=O)N[C@@H](CCC(=O)O)C(N)=O` [Peptide 459] (H-H[Aib]QGTFTSDVSK[αMeF]LDKK([AEEA-AEEA-γGlu-C18 diacid])RAQDFVRWLLAE-NH2): the EC50 in assay [1] (setting [3]) turned out to be 32.7 pM; in assay [2] (setting [3]) it was 36.9 pM. Further, the “% Relative Potency Ratio” value in assay [1] was found to be 2.2.

As usually defined, the EC50 is the concentration that produces a half-maximal response.
